# Measurements reported in patent publication US20210130460A1, “ANTI-CD19 THERAPY IN COMBINATION WITH LENALIDOMIDE FOR THE TREATMENT OF LEUKEMIA OR LYMPHOMA” (MORPHOSYS AG, priority 2019, published 2021).
# Like-named read-outs stand apart in the source and are kept apart here.
# Columns and labels:
# [1] = system: relapsed or refractory DLBCL; conditions: cited from earlier work
# [2] = L-MIND phase 2 study: safety (adverse events)
# Method: MOR00208 was administered intravenously at a dose of 12 mg/kg, over approximately 2 hours. For cycles 1 to 3, MOR00208 was administered weekly on days 1, 8, 15, and 22; an additional loading dose was administered on day 4 of cycle 1. […] Patients self-administered lenalidomide orally, starting with 25 mg daily on days 1-21 of each 28-day cycle. A step-wise dose reduction (decrease by 5 mg/day in each step, only once per cycle, without re-escalation) of lenalidomide was permitted in case of protocol-defined toxicities.
# Efficacy analyses are based on the full analysis set comprising all patients who received at least one dose of both MOR00208 and lenalidomide; safety analyses were based on those who received at least one dose of either study medication.
Compound,"Objective response rate ([1]; single-agent, relapsed or refractory DLBCL (Ann. Oncol. 29, 1266-1272, 2018)) [%]","Grade 3 or 4 neutropenia ([2]; MOR00208 monotherapy after discontinuation of lenalidomide, 6/51 patients) [%]","Adverse events of grade 3 or 4 ([2]; after lenalidomide discontinuation, 15/51 patients) [%]",Objective response rate ([1]; prior studies in similar populations) [%]
"MOR00208: Fc-enhanced humanized anti-CD19 monoclonal antibody, sequences in Table 1 (SEQ ID NO: 1-12)",26,11.8,29.4,–
Nc1cccc2c1CN(C1CCC(=O)NC1=O)C2=O (stereo not shown) [lenalidomide],–,–,–,28
